Data from article PMC11822212, “High-throughput screening identifies Aurora kinase B as a critical therapeutic target for Merkel cell carcinoma” (Nature Communications, 2025).
Structures can show the parent of a compound that is named as a salt. Where two headings read alike, the source gives them in different places.

Columns and labels:
[1] = system: MKL-1 cells (VP-MCC); assay: qHTS cell viability (CellTiter-Glo, 72 h; primary and follow-up small molecule screen); assay type: cell-based, human
[2] = system: control cell lines (HACAT, HEK293T, CRL-7250, NIH-3T3); assay: qHTS cell viability, control cell lines as a group (mean AUC, Control.avg); assay type: cell-based
[3] = system: NIH-3T3 cells; assay: qHTS cell viability (CellTiter-Glo, 72 h; primary screen), control cell line; assay type: cell-based, mouse
[4] = system: MCC26 cells (VN-MCC); assay: qHTS cell viability (CellTiter-Glo, 72 h; primary and follow-up small molecule screen); assay type: cell-based, human
[5] = system: CRL-7250 cells; assay: qHTS cell viability (CellTiter-Glo, 72 h; primary screen), control cell line; assay type: cell-based
[6] = system: MKL-2 cells (VP-MCC); assay: qHTS cell viability (CellTiter-Glo, 72 h; primary and follow-up small molecule screen); assay type: cell-based, human
[7] = system: UISO cells (VN-MCC); assay: as above; assay type: cell-based, human
[8] = system: MCC13 cells (VN-MCC); assay: as above; assay type: cell-based, human
[9] = system: HACAT cells; assay: qHTS cell viability (CellTiter-Glo, 72 h; primary screen), control cell line; assay type: cell-based, human
[10] = system: HEK293T cells; assay: as above; assay type: cell-based, human
[11] = system: VN-MCC cell lines (MCC13, MCC26, UISO); assay: qHTS cell viability, VN-MCC cell lines as a group (mean AUC, VN.MCC.avg); assay type: cell-based, human
[12] = system: WAGA cells (VP-MCC); assay: qHTS cell viability (CellTiter-Glo, 72 h; primary and follow-up small molecule screen); assay type: cell-based, human
[13] = system: MCC cell lines (WAGA, MKL-1, MKL-2, MCC13, MCC26, UISO); assay: qHTS cell viability, all six MCC cell lines as a group (mean AUC, MCC.avg); assay type: cell-based, human
[14] = system: six MCC cell lines and four control cell lines; assay: qHTS cell viability, all 10 cell lines screened; assay type: cell-based
[15] = system: VP-MCC cell lines (WAGA, MKL-1, MKL-2); assay: qHTS cell viability, VP-MCC cell lines as a group (mean AUC, VP.MCC.avg); assay type: cell-based, human
[16] = MIPE library, 11-point DRC, sheet S2E
[17] = follow-up screen, MKL-1, replicate 1
[18] = follow-up screen, MKL-1, replicate 2
[19] = follow-up screen, MKL-1, replicate 3
[20] = MIPE library, mean AUC of control cell lines, sheet S2E
[21] = MIPE library, 11-point DRC, control cell line, sheet S2E
[22] = follow-up screen, MCC26, replicate 1
[23] = follow-up screen, MCC26, replicate 2
[24] = follow-up screen, MCC26, replicate 3
[25] = follow-up screen, MKL-2, replicate 1
[26] = follow-up screen, MKL-2, replicate 2
[27] = follow-up screen, MKL-2, replicate 3
[28] = follow-up screen, UISO, replicate 1
[29] = follow-up screen, UISO, replicate 2
[30] = follow-up screen, UISO, replicate 3
[31] = follow-up screen, MCC13, replicate 1
[32] = follow-up screen, MCC13, replicate 2
[33] = follow-up screen, MCC13, replicate 3
[34] = MIPE library, Control AUC minus VN-MCC AUC (therapeutic window), sheet S2E
[35] = MIPE library, mean AUC of VN-MCC cell lines, sheet S2E
[36] = follow-up screen, WAGA, replicate 1
[37] = follow-up screen, WAGA, replicate 2
[38] = follow-up screen, WAGA, replicate 3
[39] = MIPE library, mean AUC of six MCC cell lines, sheet S2E
[40] = MIPE library, Control AUC minus MCC AUC (therapeutic window), sheet S2E
[41] = MIPE library, Control AUC minus VP-MCC AUC (therapeutic window), sheet S2E
[42] = MIPE library, mean AUC of VP-MCC cell lines, sheet S2E

With O=c1cc(-c2ccc(O)cc2)oc2cc(O)cc(O)c12 [Apigenin] the MKL1_AUC [1, 16] was 377.491, the “Area under the dose-response curve (AUC) MKL-1 Replicate 1” value (“Area … (AUC) MKL-1 Replicate 1” for short) [1, 17] was 510.1 and the “Area under the dose-response curve (AUC) MKL-1 Replicate 2” value (shortened to “Area … (AUC) MKL-1 Replicate 2”) [1, 18] was 521.0. For the same compound, the “Area under the dose-response curve (AUC) MKL-1 Replicate 3” value (“Area … (AUC) MKL-1 Replicate 3” below) [1, 19] was 502.5, the Control_Avg_AUC [2, 20] was 460.174 and the NIH3T3_AUC [3, 21] was 470.997. For the same compound, the MCC26_AUC [4, 16] was 531.61, the “Area under the dose-response curve (AUC) MCC26 Replicate 1” value (from here on “Area … (AUC) MCC26 Replicate 1”) [4, 22] was 480.1 and the “Area under the dose-response curve (AUC) MCC26 Replicate 2” value (shortened to “Area … (AUC) MCC26 Replicate 2”) [4, 23] was 461.0. The “Area under the dose-response curve (AUC) MCC26 Replicate 3” value (“Area … (AUC) MCC26 Replicate 3” below) [4, 24] was 496.4, the CRL7250_AUC [5, 21] was 438.96 and the MKL2_AUC [6, 16] was 357.96. For the same compound, the “Area under the dose-response curve (AUC) MKL-2 Replicate 1” value (from here on “Area … (AUC) MKL-2 Replicate 1”) [6, 25] was 530.0, the “Area under the dose-response curve (AUC) MKL-2 Replicate 2” value (shortened to “Area … (AUC) MKL-2 Replicate 2”) [6, 26] was 507.8 and the “Area under the dose-response curve (AUC) MKL-2 Replicate 3” value (“Area … (AUC) MKL-2 Replicate 3” below) [6, 27] was 497.7. The UISO_AUC [7, 16] was 485.478, the “Area under the dose-response curve (AUC) UISO Replicate 1” value (from here on “Area … (AUC) UISO Replicate 1”) [7, 28] was 472.2 and the “Area under the dose-response curve (AUC) UISO Replicate 2” value (from here on “Area … (AUC) UISO Replicate 2”) [7, 29] was 489.3. The “Area under the dose-response curve (AUC) UISO Replicate 3” value (from here on “Area … (AUC) UISO Replicate 3”) [7, 30] was 503.1, the MCC13_AUC [8, 16] was 501.623 and the “Area under the dose-response curve (AUC) MCC13 Replicate 1” value (from here on “Area … (AUC) MCC13 Replicate 1”) [8, 31] was 539.3. For the same compound, the “Area under the dose-response curve (AUC) MCC13 Replicate 2” value (shortened to “Area … (AUC) MCC13 Replicate 2”) [8, 32] was 539.6, the “Area under the dose-response curve (AUC) MCC13 Replicate 3” value (“Area … (AUC) MCC13 Replicate 3” below) [8, 33] was 514.9 and the HACAT_AUC [9, 21] was 470.945. The HEK293T_AUC [10, 21] was 459.794, the Control-VN-MCC [11, 34] was -46.0631 and the VN-MCC_Avg_AUC [11, 35] was 506.237. The WAGA_AUC [12, 16] was 368.999, the “Area under the dose-response curve (AUC) WAGA Replicate 1” value (from here on “Area … (AUC) WAGA Replicate 1”) [12, 36] was 549.1 and the “Area under the dose-response curve (AUC) WAGA Replicate 2” value (from here on “Area … (AUC) WAGA Replicate 2”) [12, 37] was 497.7. The “Area under the dose-response curve (AUC) WAGA Replicate 3” value (from here on “Area … (AUC) WAGA Replicate 3”) [12, 38] was 481.5, the MCC_Avg_AUC [13, 39] was 437.193 and the Control-MCC [14, 40] was 22.9804. It also gave a Control-VP-MCC [15, 41] of 92.024 and a VP-MCC_Avg_AUC [15, 42] of 368.15.

For CN1CCCC(n2nc(Cc3ccc(Cl)cc3)c3ccccc3c2=O)CC1 (centres unmarked) [Azelastine hydrochloride], the MKL1_AUC [1, 16] was 341.965, the “Area … (AUC) MKL-1 Replicate 1” value [1, 17] was 494.5 and the “Area … (AUC) MKL-1 Replicate 2” value [1, 18] was 511.5. The “Area … (AUC) MKL-1 Replicate 3” value [1, 19] was 475.2, the Control_Avg_AUC [2, 20] was 459.462 and the NIH3T3_AUC [3, 21] was 471.996. The MCC26_AUC [4, 16] was 431.003, the “Area … (AUC) MCC26 Replicate 1” value [4, 22] was 450.4 and the “Area … (AUC) MCC26 Replicate 2” value [4, 23] was 432.6. For the same compound, the “Area … (AUC) MCC26 Replicate 3” value [4, 24] was 475.6, the CRL7250_AUC [5, 21] was 443.828 and the MKL2_AUC [6, 16] was 320.643. The “Area … (AUC) MKL-2 Replicate 1” value [6, 25] was 463.4, the “Area … (AUC) MKL-2 Replicate 2” value [6, 26] was 469.5 and the “Area … (AUC) MKL-2 Replicate 3” value [6, 27] was 473.5. The UISO_AUC [7, 16] was 426.293, the “Area … (AUC) UISO Replicate 1” value [7, 28] was 472.1 and the “Area … (AUC) UISO Replicate 2” value [7, 29] was 488.6. For the same compound, the “Area … (AUC) UISO Replicate 3” value [7, 30] was 481.1, the MCC13_AUC [8, 16] was 451.766 and the “Area … (AUC) MCC13 Replicate 1” value [8, 31] was 500.3. The “Area … (AUC) MCC13 Replicate 2” value [8, 32] was 476.4, the “Area … (AUC) MCC13 Replicate 3” value [8, 33] was 479.3 and the HACAT_AUC [9, 21] was 463.226. The HEK293T_AUC [10, 21] was 458.798, the Control-VN-MCC [11, 34] was 23.1078 and the VN-MCC_Avg_AUC [11, 35] was 436.354. For the same compound, the WAGA_AUC [12, 16] was 268.398, the “Area … (AUC) WAGA Replicate 1” value [12, 36] was 515.6 and the “Area … (AUC) WAGA Replicate 2” value [12, 37] was 481.7. The “Area … (AUC) WAGA Replicate 3” value [12, 38] was 478.9, the MCC_Avg_AUC [13, 39] was 373.345 and the Control-MCC [14, 40] was 86.1174. It also gave a Control-VP-MCC [15, 41] of 149.127 and a VP-MCC_Avg_AUC [15, 42] of 310.335.

For CC(C)(C)CC(C)(C)c1ccc(OCCOCC[N+](C)(C)Cc2ccccc2)cc1 [Benzethonium chloride], the “Area … (AUC) MKL-1 Replicate 1” value [1] was 338.0, the “Area … (AUC) MKL-1 Replicate 2” value [1] was 346.5 and the “Area … (AUC) MKL-1 Replicate 3” value [1] was 373.3. The MKL1_AUC [1] was 344.624, the Control_Avg_AUC [2] was 422.803 and the NIH3T3_AUC [3] was 461.959. The “Area … (AUC) MCC26 Replicate 1” value [4] was 408.1, the “Area … (AUC) MCC26 Replicate 2” value [4] was 395.1 and the “Area … (AUC) MCC26 Replicate 3” value [4] was 422.7. For the same compound, the MCC26_AUC [4] was 468.704, the CRL7250_AUC [5] was 423.584 and the “Area … (AUC) MKL-2 Replicate 1” value [6] was 357.2. The “Area … (AUC) MKL-2 Replicate 2” value [6] was 340.8, the “Area … (AUC) MKL-2 Replicate 3” value [6] was 365.0 and the MKL2_AUC [6] was 335.827. The “Area … (AUC) UISO Replicate 1” value [7] was 363.2, the “Area … (AUC) UISO Replicate 2” value [7] was 392.4 and the “Area … (AUC) UISO Replicate 3” value [7] was 362.8. The UISO_AUC [7] was 402.239, the “Area … (AUC) MCC13 Replicate 1” value [8] was 446.4 and the “Area … (AUC) MCC13 Replicate 2” value [8] was 458.8. For the same compound, the “Area … (AUC) MCC13 Replicate 3” value [8] was 480.2, the MCC13_AUC [8] was 470.477 and the HACAT_AUC [9] was 436.332. For the same compound, the HEK293T_AUC [10] was 369.337, the Control-VN-MCC [11] was -24.3368 and the VN-MCC_Avg_AUC [11] was 447.14. For the same compound, the “Area … (AUC) WAGA Replicate 1” value [12] was 389.4, the “Area … (AUC) WAGA Replicate 2” value [12] was 374.6 and the “Area … (AUC) WAGA Replicate 3” value [12] was 382.0. It also gave a WAGA_AUC [12] of 367.918, an MCC_Avg_AUC [13] of 398.298 and a Control-MCC [14] of 24.505. For the same compound, the Control-VP-MCC [15] was 73.3469 and the VP-MCC_Avg_AUC [15] was 349.456.

Compound CCC(=O)O[C@@H]1C=C2CCC3C(CCC4(C)C3CC[C@@H]4OC(=O)CC)C2CC1 (some centres unmarked) [Bolandiol dipropionate] has an MKL1_AUC [1] of 411.821, a Control_Avg_AUC [2] of 471.728 and an NIH3T3_AUC [3] of 491.81. The MCC26_AUC [4] was 482.222, the CRL7250_AUC [5] was 480.859 and the MKL2_AUC [6] was 411.71. It also gave a UISO_AUC [7] of 526.911, an MCC13_AUC [8] of 478.899 and an HACAT_AUC [9] of 443.174. For the same compound, the HEK293T_AUC [10] was 471.071, the Control-VN-MCC [11] was -24.2823 and the VN-MCC_Avg_AUC [11] was 496.011. It also gave a WAGA_AUC [12] of 383.532, an MCC_Avg_AUC [13] of 449.182 and a Control-MCC [14] of 22.5458. It also gave a Control-VP-MCC [15] of 69.3739 and a VP-MCC_Avg_AUC [15] of 402.354.
